Measured values published in ChEMBL document CHEMBL1149963, “Synthesis of a novel series of 3-oxo-2,4-dioxobicyclo[3.2.1]octanes: additional evidence for two thromboxane receptor subtypes” (Bioorg Med Chem Lett, 1994).

Legend:
Thromboxane A2 receptor [1] = target: T1, Thromboxane A2 receptor (Homo sapiens, UniProt P21731); assay: Activity against thromboxane A2 receptor evaluated by aggregation of human platelets at 0-10 uM; Not active
T1 sequence (P21731 whole entry): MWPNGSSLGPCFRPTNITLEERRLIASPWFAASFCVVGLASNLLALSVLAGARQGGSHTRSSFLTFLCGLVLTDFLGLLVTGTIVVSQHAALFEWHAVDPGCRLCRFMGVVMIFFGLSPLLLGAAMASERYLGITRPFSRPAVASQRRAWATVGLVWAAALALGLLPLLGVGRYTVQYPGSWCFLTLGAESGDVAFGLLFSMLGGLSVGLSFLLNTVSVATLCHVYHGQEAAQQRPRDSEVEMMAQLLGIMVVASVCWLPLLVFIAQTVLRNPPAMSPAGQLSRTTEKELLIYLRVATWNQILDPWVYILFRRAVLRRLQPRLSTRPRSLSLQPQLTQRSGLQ

Thromboxane A2 receptor [2] = target: T2, Thromboxane A2 receptor (Rattus norvegicus, UniProt P34978); assay: Activity against thromboxane A2 receptor evaluated by contraction of isolated rat thoracic aorta; assay type: tissue-based
T2 sequence (P34978 whole entry): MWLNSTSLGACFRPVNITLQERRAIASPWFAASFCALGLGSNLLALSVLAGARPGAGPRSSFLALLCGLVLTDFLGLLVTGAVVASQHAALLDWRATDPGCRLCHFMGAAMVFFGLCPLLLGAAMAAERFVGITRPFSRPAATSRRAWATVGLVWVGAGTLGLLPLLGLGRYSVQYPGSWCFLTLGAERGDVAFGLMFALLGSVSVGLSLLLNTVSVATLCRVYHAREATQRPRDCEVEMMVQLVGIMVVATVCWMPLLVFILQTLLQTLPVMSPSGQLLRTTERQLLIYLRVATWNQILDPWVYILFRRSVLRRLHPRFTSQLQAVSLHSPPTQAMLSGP

EC50 (Thromboxane A2 receptor [1]) | EC50 (Thromboxane A2 receptor [2]) [nM] | Structure (SMILES)
Not Active | 324 | CCCCCC(O)/C=C/[C@@H]1[C@@H](C/C=C\CCCC(=O)NC(C)C)[C@@H]2C[C@H]1OC(=O)O2 (stereo partly specified)
 | 0.23 | CCCCCC(O)/C=C/[C@@H]1[C@@H](C/C=C\CCCC(=O)O)[C@@H]2C[C@H]1OC(=O)O2 (stereo partly specified)
 | 58 | CCCCCC(O)/C=C/[C@@H]1[C@@H](C/C=C\CCCC(N)=O)[C@@H]2C[C@H]1OC(=O)O2 (stereo partly specified)
Not Active | 1 | CCCCCC(O)/C=C/[C@@H]1[C@@H](C/C=C\CCCCO)[C@@H]2C[C@H]1OC(=O)O2 (stereo partly specified)
